Assays:
GCN2 kinase = GCN2 kinase (Homo sapiens (Human), UniProt Q9P2K8); test: Biochemical assay for GCN2 (TR-FRET kinase activity); details: 1 mM ATP
Description: Activity of GCN2 kinase was determined using a TR-FRET kinase activity assay (e.g. Riddle et al. Analytical Biochemistry (2006) 356(1) 108-116). Assays were conducted in 384-well plates (13 μL assay volume) using 2 nM GCN2 (Carna Biosciences), 130 nM GFP-EIf2α (Invitrogen), 0.2 mg/mL E. coli tRNA (sigma) and 1 mM ATP in kinase buffer (Invitrogen). Inhibition of GCN2 was measured by adding serial diluted test compound (final assay concentration of 0.5% DMSO) followed by a 3-hour incubation. Tb-peIF2α (pSer52) antibody (Invitrogen) (2 nM final assay concentration) in kinase buffer containing EDTA (final assay concentration of 20 mM) was added. After a 60 min incubation at room temperature, TR-FRET was monitored using an excitation wavelength of 340 nm and emission wavelengths of 490 nm and 520 nm. The emission ratio (520/490) at each compound concentration of was converted to percent inhibition using controls (i.e., reaction with no test compound and reaction with a known inhibitor) and IC50 values were calculated by fitting a four-parameter sigmoidal curve to the data using Prism (GraphPad software).

[1] = molecular target: PERK oligomers (HEK-293 cells) (Homo sapiens (Human), UniProt Q9NZJ5); test: Detection of PERK oligomerization using NanoBRET; format: cell-based; details: HEK-293, 4 h, FIG. 2; read-out: stimulation of the formation of PERK oligomers EC50
Description: Constructs for BRET were built using the NanoBRET™ Flexi® PPI Starter System (Promega, Madison, WI). The full-length PERK ORF was obtained from Genscript (Piscataway, NJ). HEK-293 cells (catalog #CRL-1573) were obtained from the American Type Culture Collection (ATTC, Manassas, VA). Cells were grown in MEM medium supplemented with 10% heat-inactivated fetal bovine serum (Invitrogen, Carlsbad, CA) and 1% Penicillin/Streptomycin/L-Glutamine at 37° C., 5% CO2, and 95% humidity. For BRET assays, cells were seeded at a density of 40,000 cells/mL in culture medium in 6-well plates and allowed to attach and recover. Cells were transfected with C-terminally tagged PERK-NLuc and C-terminally tagged PERK-Halo using Lipofectamine LTX (Thermo, Waltham, MA) and allowed to express proteins overnight at 37° C., 5% CO2, and 95% humidity. Cells were then detached from culture dishes using 0.05% trypsin-EDTA, collected, and diluted in assay medium consisting of Opti-MEM® I Reduced Serum Medium supplemented with 4% FBS (Thermo) to 22,000 cells/mL. Cells were dispensed into 96-well cell culture plates and HaloTag® NanoBRET™ 618 Ligand (Promega) was added to a final concentration of 100 nM. […] Donor ([…]) and acceptor (618) emissions were measured on a Synergy Neo2 Multi-Mode Reader (BioTek, Winooski, VT) within 10 min of substrate addition. […]

MV-4-11 xenograft = MV-4-11 xenograft efficacy model; format: in vivo, mice; details: 14 days of dosing
Description: The MV-4-11 xenograft model was performed in compliance with all the laws, regulations and guidelines of the National Institutes of Health (NIH) and with the approval of the Animal Care and Use Committee of Crown Bioscience (Taicang, China), an AAALAC accredited facility. Food and water was provided ad libitum. […] Female NOD/SCID (6-9 weeks old; Vital River Laboratories Research Models and Services (Beijing, China)) were inoculated subcutaneously right front flank region with five million cells in Dulbecco's Phosphate Buffered Saline:Matrigel (1:1), using a 27-gauge needle and syringe. When tumor burdens reached 150 mm 3 on average on day 7, mice were randomly assigned into groups such that the mean tumor burden for all groups was within 10% of the overall mean tumor burden for the study population. Groups were treated on days 7-21 as follows: vehicle control (dosed orally and IP to mimic combination groups) (n=10); Compound 2 dosed orally at 50 mg/kg/day of Compound 2 (n=10); Leunase (Kyowa Kirin, Japan) dosed IP at 1000 U/kg/day (n=10); Leunase (Kyowa Kirin, Japan) dosed IP at 1000 U/kg/day (n=10) and Compound 2 dosed orally at 50 mg/kg/day of Compound 2 (n=10). Tumor volume and body weight were measured three time per week. Tumor burden (mg) was estimated from caliper measurements by the formula: tumor burden (mg=mm 3)=(length×width 2)/2.

Chain of GCN2 kinase (Q9P2K8 whole entry): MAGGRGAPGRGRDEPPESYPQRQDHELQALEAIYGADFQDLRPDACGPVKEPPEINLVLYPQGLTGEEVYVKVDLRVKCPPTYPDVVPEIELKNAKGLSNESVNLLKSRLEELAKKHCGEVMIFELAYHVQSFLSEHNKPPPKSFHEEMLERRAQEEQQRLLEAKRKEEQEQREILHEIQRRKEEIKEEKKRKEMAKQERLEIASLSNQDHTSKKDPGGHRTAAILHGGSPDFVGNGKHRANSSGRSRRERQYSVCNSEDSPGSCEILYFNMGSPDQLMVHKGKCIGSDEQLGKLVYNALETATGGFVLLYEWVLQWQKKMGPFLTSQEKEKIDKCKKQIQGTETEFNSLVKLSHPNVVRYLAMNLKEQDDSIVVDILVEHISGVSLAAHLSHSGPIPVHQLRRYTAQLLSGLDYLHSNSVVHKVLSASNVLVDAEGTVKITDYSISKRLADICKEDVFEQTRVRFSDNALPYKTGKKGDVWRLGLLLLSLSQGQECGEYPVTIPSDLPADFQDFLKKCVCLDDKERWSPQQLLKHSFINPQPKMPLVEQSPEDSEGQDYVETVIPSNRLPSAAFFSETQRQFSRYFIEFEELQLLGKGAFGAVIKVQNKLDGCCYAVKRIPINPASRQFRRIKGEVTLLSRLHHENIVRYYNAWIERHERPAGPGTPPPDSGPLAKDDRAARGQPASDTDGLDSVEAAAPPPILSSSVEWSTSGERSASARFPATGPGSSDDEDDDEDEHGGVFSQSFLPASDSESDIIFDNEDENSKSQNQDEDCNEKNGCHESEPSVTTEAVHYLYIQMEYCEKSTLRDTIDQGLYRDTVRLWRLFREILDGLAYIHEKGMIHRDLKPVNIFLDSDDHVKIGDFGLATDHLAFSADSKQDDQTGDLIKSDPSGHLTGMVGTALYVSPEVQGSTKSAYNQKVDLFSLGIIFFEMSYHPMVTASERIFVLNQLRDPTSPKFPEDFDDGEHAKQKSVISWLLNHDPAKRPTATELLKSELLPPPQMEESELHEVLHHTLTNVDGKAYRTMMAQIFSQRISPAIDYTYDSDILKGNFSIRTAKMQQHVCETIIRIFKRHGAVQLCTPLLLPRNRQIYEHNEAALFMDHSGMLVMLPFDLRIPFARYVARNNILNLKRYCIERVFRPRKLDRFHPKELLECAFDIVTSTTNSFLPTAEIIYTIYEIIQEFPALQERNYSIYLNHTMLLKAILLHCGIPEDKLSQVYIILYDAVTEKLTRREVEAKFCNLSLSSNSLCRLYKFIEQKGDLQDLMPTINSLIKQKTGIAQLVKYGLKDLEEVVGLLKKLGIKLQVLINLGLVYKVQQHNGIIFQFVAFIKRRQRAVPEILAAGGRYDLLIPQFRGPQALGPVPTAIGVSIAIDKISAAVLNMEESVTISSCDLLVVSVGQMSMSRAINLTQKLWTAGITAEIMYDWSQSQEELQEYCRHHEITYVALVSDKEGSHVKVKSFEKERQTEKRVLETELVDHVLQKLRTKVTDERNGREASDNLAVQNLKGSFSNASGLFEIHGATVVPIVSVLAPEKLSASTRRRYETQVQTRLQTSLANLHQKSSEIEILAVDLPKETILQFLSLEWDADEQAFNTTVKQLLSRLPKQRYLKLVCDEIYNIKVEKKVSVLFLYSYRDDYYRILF
Chain of PERK oligomers (HEK-293 cells) (Q9NZJ5 30-1116): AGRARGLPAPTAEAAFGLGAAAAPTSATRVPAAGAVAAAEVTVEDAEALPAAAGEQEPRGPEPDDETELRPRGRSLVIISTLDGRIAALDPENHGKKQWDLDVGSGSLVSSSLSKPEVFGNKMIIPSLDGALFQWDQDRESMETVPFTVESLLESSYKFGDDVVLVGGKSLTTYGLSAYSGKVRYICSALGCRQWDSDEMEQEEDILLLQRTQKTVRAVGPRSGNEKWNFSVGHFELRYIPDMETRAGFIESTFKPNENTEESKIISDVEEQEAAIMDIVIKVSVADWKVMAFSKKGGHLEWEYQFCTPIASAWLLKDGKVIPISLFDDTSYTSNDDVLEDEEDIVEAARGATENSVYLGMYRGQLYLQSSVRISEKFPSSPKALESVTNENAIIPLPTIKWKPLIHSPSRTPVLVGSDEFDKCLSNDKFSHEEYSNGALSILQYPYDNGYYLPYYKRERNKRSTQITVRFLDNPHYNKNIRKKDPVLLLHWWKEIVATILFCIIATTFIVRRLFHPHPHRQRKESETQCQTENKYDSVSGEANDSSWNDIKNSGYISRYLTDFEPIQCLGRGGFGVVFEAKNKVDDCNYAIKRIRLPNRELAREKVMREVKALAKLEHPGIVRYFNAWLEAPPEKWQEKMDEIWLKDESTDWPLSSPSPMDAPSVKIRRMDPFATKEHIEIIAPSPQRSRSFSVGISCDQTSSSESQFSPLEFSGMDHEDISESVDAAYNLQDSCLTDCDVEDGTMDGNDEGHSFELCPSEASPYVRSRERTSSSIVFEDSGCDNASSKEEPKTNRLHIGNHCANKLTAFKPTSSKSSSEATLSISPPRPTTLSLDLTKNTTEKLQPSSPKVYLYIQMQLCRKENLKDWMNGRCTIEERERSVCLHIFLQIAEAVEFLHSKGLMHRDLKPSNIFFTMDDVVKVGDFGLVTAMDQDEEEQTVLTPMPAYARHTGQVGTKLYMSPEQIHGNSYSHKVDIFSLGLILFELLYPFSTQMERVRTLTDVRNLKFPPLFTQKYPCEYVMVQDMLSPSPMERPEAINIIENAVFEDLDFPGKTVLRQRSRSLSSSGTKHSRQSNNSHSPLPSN
Chain of PERK oligomers (HEK-293 cells) (Q9NZJ5 30-1116): as above

## Cn1cc(-c2cccc(NS(=O)(=O)c3cc(Cl)cc(CO)c3Cl)c2F)c2c(N)ncnc21 [Example 2, N-(3-(4-amino-7-methyl-7H-pyrrolo[2,3-d]pyrimidin-5-yl)-2-fluorophenyl)-2,5-dichloro-3-(hydroxymethyl)benzenesulfonamide]
GCN2 kinase
  IC50: ≤ 100 nM
[1]
  EC50: 1.6 nM
MV-4-11 xenograft; 50 mg/kg/day combined with Leunase
  mean tumor growth inhibition: 54%
MV-4-11 xenograft; 50 mg/kg/day orally
  effect on tumor growth, single agent: no significant effect on tumor growth
